# Test results taken from PubChem BioAssay AID1963430 (Molecular Pharmacology Branch, DTP, NCI, 2024).
# Test system: 521955-158-R2-J5-PDC complex spheroid growth, % test/control
# Assay: Anticancer human tumor 521955-158-R2-J5-PDC patient-derived pancreatic carcinoma cell line growth inhibition [Asc]
# Details: for IC50: curve of first compound; for viability, T/C: stronger effect = lower value
# Outline: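 Spheroid model: tumor line + HUVEC + hMSC. Single agents and combinations; top conc. at/near clinical Cmax (10 microM if undetermined), half-log dilutions. DMSO stocks at 800-fold test concentration.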
# [1] = second compound 0.1 µM, first compound 0.00316 µM
# [2] = second compound 0.1 µM, first compound 0.01 µM
# [3] = second compound 0.1 µM, first compound 0.0316 µM
# [4] = second compound 0.1 µM, first compound 0.1 µM
# [5] = second compound 0.1 µM, first compound 0.316 µM
# [6] = second compound 0.1 µM, first compound 1 µM
# [7] = second compound 0.316 µM, first compound 0.00316 µM
# [8] = second compound 0.316 µM, first compound 0.01 µM
# [9] = second compound 0.316 µM, first compound 0.0316 µM
# [10] = second compound 0.316 µM, first compound 0.1 µM
# [11] = second compound 0.316 µM, first compound 0.316 µM
# [12] = second compound 0.316 µM, first compound 1 µM
# [13] = second compound 1 µM, first compound 0.00316 µM
# [14] = second compound 1 µM, first compound 0.01 µM
# [15] = second compound 1 µM, first compound 0.0316 µM
# [16] = second compound 1 µM, first compound 0.1 µM
# [17] = second compound 1 µM, first compound 0.316 µM
# [18] = second compound 1 µM, first compound 1 µM
# [19] = second compound 3.16 µM, first compound 0.0316 µM
# [20] = second compound 3.16 µM, first compound 0.1 µM
# [21] = second compound 3.16 µM, first compound 0.316 µM
# [22] = second compound 3.16 µM, first compound 1 µM
# [23] = second compound 10 µM, first compound 0.0316 µM
# [24] = second compound 10 µM, first compound 0.1 µM
# [25] = second compound 10 µM, first compound 0.316 µM
# [26] = second compound 10 µM, first compound 1 µM
# [27] = second compound 3.16 µM, first compound 0.00316 µM
# [28] = second compound 3.16 µM, first compound 0.01 µM
# [29] = second compound 10 µM, first compound 0.00316 µM
# [30] = second compound 10 µM, first compound 0.01 µM
# 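Further: spheroids exposed to agents for 7 days before readout.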
# 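Wherever viability, T/C is given: 100% = DMSO vehicle control viability.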
SMILES,IC50 (second compound 0.1 µM) [nM],IC50 (second compound 0.316 µM) [nM],IC50 (second compound 1 µM) [nM],"viability, T/C [1] [%]","viability, T/C [2] [%]","viability, T/C [3] [%]","viability, T/C [4] [%]","viability, T/C [5] [%]","viability, T/C [6] [%]","viability, T/C [7] [%]","viability, T/C [8] [%]","viability, T/C [9] [%]","viability, T/C [10] [%]","viability, T/C [11] [%]","viability, T/C [12] [%]","viability, T/C [13] [%]","viability, T/C [15] [%]","viability, T/C [16] [%]","viability, T/C [17] [%]","viability, T/C [18] [%]",also measured
COc1c(OCCCN2CCOCC2)ccc2c3n(c(=NC(=O)c4cnc(N)nc4)nc12)CCN3 + CNC(C)C(=O)NC1CN(S(=O)(=O)c2cccc(S(=O)(=O)N3CCC4CCC(C(=O)NC(c5ccccc5)c5ccccc5)N4C(=O)C(NC(=O)C(C)NC)C3)c2)CCC2CCC(C(=O)NC(c3ccccc3)c3ccccc3)N2C1=O,9.32,14.9,21.9,71.3,43.6,36.1,27.9,17.1,11.6,91,52.8,35.6,34.8,16.5,13.1,83.3,42.5,28.6,17.6,12.9,"IC50 (second compound 0.01 µM): 8.04 nM; IC50 (second compound 0.0316 µM): 21 nM; viability, T/C (second compound 0.01 µM, first compound 0.00316 µM): 63.6%; viability, T/C (second compound 0.01 µM, first compound 0.01 µM): 42.8%; viability, T/C (second compound 0.01 µM, first compound 0.0316 µM): 38.4%; viability, T/C (second compound 0.01 µM, first compound 0.1 µM): 25.5%; viability, T/C (second compound 0.01 µM, first compound 0.316 µM): 17.9%; viability, T/C (second compound 0.01 µM, first compound 1 µM): 11.8%; viability, T/C (second compound 0.0316 µM, first compound 0.00316 µM): 73.1%; viability, T/C (second compound 0.0316 µM, first compound 0.01 µM): 71.1%; viability, T/C (second compound 0.0316 µM, first compound 0.0316 µM): 35%; viability, T/C (second compound 0.0316 µM, first compound 0.1 µM): 30%; viability, T/C (second compound 0.0316 µM, first compound 0.316 µM): 18%; viability, T/C (second compound 0.0316 µM, first compound 1 µM): 11.5%; viability, T/C [14]: 64.5%"
C=C(F)C(=O)N1CCN(c2nc(OCC3CCCN3C)nc3c2CCN(c2cccc4cccc(Cl)c24)C3)CC1CC#N (stereo not given) + Cc1c(S(C)(=O)=O)c(-c2cc(F)cc(N3CCN(c4ccc(NS(=O)(=O)c5ccc(NC(CCN6CCC(C(=O)OCCCP(=O)(O)O)CC6)CSc6ccccc6)c(S(=O)(=O)C(F)(F)F)c5)cc4)CC3)c2)c(-c2ccc(Cl)cc2)n1C(C)C,4850,4940,5240,,,64.6,69.9,55.4,105,,,69,76.6,81.7,84.3,,105,82.9,69.2,80.8,"IC50 (second compound 3.16 µM): 5010 nM; IC50 (second compound 10 µM): 6660 nM; viability, T/C (second compound 0.1 µM, first compound 3.16 µM): 101%; viability, T/C (second compound 0.1 µM, first compound 10 µM): 0.26%; viability, T/C (second compound 0.316 µM, first compound 3.16 µM): 95.5%; viability, T/C (second compound 0.316 µM, first compound 10 µM): 0.21%; viability, T/C (second compound 1 µM, first compound 3.16 µM): 106%; viability, T/C (second compound 1 µM, first compound 10 µM): 0.21%; viability, T/C [19]: 62.4%; viability, T/C [20]: 80.9%; viability, T/C [21]: 69.5%; viability, T/C [22]: 104%; viability, T/C (second compound 3.16 µM, first compound 3.16 µM): 99.2%; viability, T/C (second compound 3.16 µM, first compound 10 µM): 0.23%; viability, T/C [23]: 190%; viability, T/C [24]: 168%; viability, T/C [25]: 195%; viability, T/C [26]: 188%; viability, T/C (second compound 10 µM, first compound 3.16 µM): 138%; viability, T/C (second compound 10 µM, first compound 10 µM): 2.12%"
COc1c(OCCCN2CCOCC2)ccc2c3n(c(=NC(=O)c4cnc(N)nc4)nc12)CCN3 + Cc1c(S(C)(=O)=O)c(-c2cc(F)cc(N3CCN(c4ccc(NS(=O)(=O)c5ccc(NC(CCN6CCC(C(=O)OCCCP(=O)(O)O)CC6)CSc6ccccc6)c(S(=O)(=O)C(F)(F)F)c5)cc4)CC3)c2)c(-c2ccc(Cl)cc2)n1C(C)C,8.11,9.46,< 3.16,58.2,52.3,30.2,31.4,18,8.91,65.2,53.1,27.2,31.2,13.1,10.8,39.3,38.9,33.2,11,3.88,"IC50 (second compound 3.16 µM): < 3.16 nM; IC50 (second compound 10 µM): 173 nM; viability, T/C [14]: 39.6%; viability, T/C [27]: 45.4%; viability, T/C [28]: 50.5%; viability, T/C [19]: 39.9%; viability, T/C [20]: 32%; viability, T/C [21]: 14%; viability, T/C [22]: 2.79%; viability, T/C [29]: 189%; viability, T/C [30]: 133%; viability, T/C [23]: 166%; viability, T/C [24]: 87.5%; viability, T/C [25]: 11.1%; viability, T/C [26]: 7%"
CCN1CCN(Cc2ccc(Nc3ncc(F)c(-c4cc(F)c5nc(C)n(C(C)C)c5c4)n3)nc2)CC1 + Cc1c(S(C)(=O)=O)c(-c2cc(F)cc(N3CCN(c4ccc(NS(=O)(=O)c5ccc(NC(CCN6CCC(C(=O)OCCCP(=O)(O)O)CC6)CSc6ccccc6)c(S(=O)(=O)C(F)(F)F)c5)cc4)CC3)c2)c(-c2ccc(Cl)cc2)n1C(C)C,3.16,3.16,> 1000,86.2,34.5,42.2,48.3,73,87.6,69,61,41.4,46.5,77.7,92.8,77.5,59.6,50.7,65.6,114,"IC50 (second compound 3.16 µM): > 1000 nM; IC50 (second compound 10 µM): > 1000 nM; viability, T/C [14]: 56.5%; viability, T/C [27]: 58%; viability, T/C [28]: 50.1%; viability, T/C [19]: 43.8%; viability, T/C [20]: 61.4%; viability, T/C [21]: 74.3%; viability, T/C [22]: 88.4%; viability, T/C [29]: 171%; viability, T/C [30]: 111%; viability, T/C [23]: 120%; viability, T/C [24]: 179%; viability, T/C [25]: 162%; viability, T/C [26]: 142%"
